{
  "source": "patent US20240003908A1",
  "about": "“POLYOL BIOMARKERS FOR CONGENITAL DISORDERS OF GLYCOSYLATION” (Mayo Foundation for Medical Education and Research, priority 2020, published 2024)",
  "key": {"[1]": {"test_system": "ICAM-1", "assay": "ICAM-1 protein (immunoblot) and mRNA (RT-qPCR) in PMM-deficient fibroblasts", "format": "cell-based, human", "details": "10 μM epalrestat", "from_the_text": "(§1) Effect of epalrestat on glycosylation biomarkers in vitro: Immunoblotting and RT-qPCR were used to measure Intercellular Adhesion Molecule 1 (ICAM-1) and Lysosomal Associated Membrane Protein 2 (LAMP-2) protein and mRNA expression levels, respectively, as cellular markers of N-glycosylation (Ferrer et al., Mol Genet Metab 131:424-429, 2020; He et al., J Biol Chem 287:18210-18217, 2012; Eskelinen, Mol Aspects Med 27:495-502, 2006; and Radenkovic et al., Mol Genet Metab 132:27-37, 2021) in 10 PMM-deficient fibroblast lines (P1-P6, P8, P17, P19, and P24) and in control fibroblasts, treated with 10 μM epalrestat (the optimal dose based on PMM enzyme activity as described above)."}, "[2]": {"test_system": "LAMP-2", "assay": "LAMP-2 protein (immunoblot) and mRNA (RT-qPCR) in PMM-deficient fibroblasts", "format": "cell-based, human", "details": "10 μM epalrestat", "from_the_text": "as §1"}, "[3]": {"test_system": "PMM-deficient fibroblasts", "assay": "Glycoproteomics of PMM-deficient fibroblasts treated with epalrestat or vehicle", "format": "cell-based, human", "from_the_text": "Proteomics and glycoproteomics: Cell were scraped in PBS, pH 7.4 and sonicated with a tip sonicator at 40% amplitude for 3 cycles of 10 seconds each. Equal amount of proteins were digested with trypsin as described elsewhere (Mun et al., Anal Chem 92:14466-14475, 2020). The digested peptides were labeled with tandem mass tag (TMT) reagents as per the manufacturer's instructions (ThermoFisher). Labelled samples were pooled, and either size-exclusion chromatography or basic pH reversed-phase fractionation was performed. An aliquot of dried peptides was resuspended in 100 μL of 0.1% formic acid and injected into Superdex peptide 10/300 column (GE Healthcare). Twenty-one (21) early fractions were collected starting at 10 minutes after injection (total run time of 130 minutes) and analyzed by LC-MS/MS as described elsewhere (Mun et al., supra). Another aliquot of total peptides was cleaned up by C18 TopTips (Glygen) and fractionated by bRPLC on a reversed phase C18 column (4.6×100 mm column). Twelve (12) fractions were dried and re-suspended in 0.1% formic acid for LC-MS/MS analysis.\nA modification of the LC-MS/MS parameters described by Mun et al. (supra) were used. Specifically, 21 early fractions from SEC and 12 fractions of bRPLC were analyzed by Orbitrap Exploris480 mass spectrometer (Thermo Fisher Scientific) coupled to an EASY-Spray column (Thermo Fisher Scientific). Every run was 130 minutes with a flow rate of 300 nL/minute. The gradient used for separation was: equilibration at 3% solvent B from 0 to 4 minutes, 3% to 10% sol B from 4 to 10 minutes, 10% to 35% sol B from 10.1 to 125 minutes, and 35% to 80% sol B from […]. All experiments were done in DDA mode with the top 15 ions isolated at a window of 0.7 m/z and a default charge state of +2. Charge states ranging from +2 to +7 were considered for MS/MS events. Stepped collision energy was applied to precursors at normalized collision energies of 15, 25, and 40. The MS precursor mass range was set to 375 to 2000 m/z and 100 to 2000 for MS/MS. The automatic gain control for MS and MS/MS were 1×10^6 and 1×10^5 and the injection times to reach AGC were 50 ms and 250 ms, respectively. 60 second dynamic exclusion was applied. Data acquisition was performed with the option of Lock mass (441.1200025 m/z) for all data.\nDatabase searching and analysis: The publicly available software pGlyco Version 2.2.0 was used (Zeng et al., Sci Rep 6:25102, 2016; and Liu et al., Nat Commun 8:438, 2017). A glycan database containing 8,092 entries and Uniprot Human Reviewed protein sequences (20,432 entries) were used as protein sequence fasta files. Cleavage specificity was set to fully tryptic with 2 missed cleavages, and precursor and fragment tolerance were set to 5 and 20 ppm. […] Reporter ion quantification was performed in Proteome Discoverer 2.5 using “reporter ion quantifier” node and Ids were matched with quantitation on a scan-to-scan basis (MS/MS). […]\nTo compare responders (patients who had more than a 20% increase in enzyme activity after epalrestat treatment) to non-responders (patients who had less than a 20% increase in enzyme activity after epalrestat treatment) and gauge the increase in glycosylation upon epalrestat treatment, linear fold changes (treated/untreated) were calculated for each of these 412 glycopeptides. The fold changes of non-responders were subtracted from the fold changes of the responders, and the fold change difference (delta fold change) was calculated. […]"}, "[4]": {"test_system": "child with PMM2-CDG", "assay": "Single patient (P1) study: safety and tolerability of oral epalrestat", "format": "in vivo, human", "details": "for liver elastography Interquartile Range to Median ratio: normal below 25%", "experimental": "Study design: An open label, single patient (P1) compassionate use study was designed to assess the safety and tolerability of oral epalrestat therapy in a child with PMM2-CDG.\nPatient assessment: Prior to the first dose of epalrestat and at 1, 2, 3, 6, 8, 9, 12 months during treatment, concomitant medications and vital signs were recorded and the patient was evaluated using the NPCRS. In addition, blood was drawn for serum chemistry, hematology, and plasma levels of epalrestat. Urine was collected for polyol measurement at baseline and twice over the course of 12 months of therapy.\nDrug administration: Epalrestat was administered orally, 3 times per day (TID) before meals in a divided dose (0.8 mg/kg/day; 5 mg TID) of epalrestat (Ono Pharmaceuticals, Osaka, Japan) starting on Day 1 of the study.\nSafety and efficacy: Safety measures included vital signs, change in CBC, liver function (INR, bilirubin, transaminases, and albumin) in blood, change in liver elastography, and following the pharmacokinetic profile of epalrestat. The efficacy of epalrestat was studied by clinical follow up (physical exam, NPCRS, ICARS), standard laboratory tests, and transferrin glycoform analysis by mass spectrometry."}, "[5]": {"details": "patient P1, throughout the study"}},
  "data": [
    {"smiles": "CC(/C=C1\\SC(=S)N(CC(=O)O)C1=O)=C\\c1ccccc1", "note": "[epalrestat]", "values": [
      {"measurement": "ICAM-1 mRNA expression", "setting": "[1]", "result": "no effect"},
      {"measurement": "LAMP-2 mRNA expression", "setting": "[2]", "result": "no effect"},
      {"measurement": "share of reduced glycopeptides improved post-treatment", "setting": "[3]; 665 of 1,448", "result": 46, "unit": "%"},
      {"measurement": "improved glycopeptides that had reduced glycosylation in PMM-deficient fibroblasts compared to controls", "setting": "[3]; among the 412 improved", "result": 97, "unit": "glycopeptides"},
      {"measurement": "number of glycopeptides improved post-treatment, becoming similar to controls", "setting": "[3]; of 1,448 reduced in untreated PMM-deficient fibroblasts", "result": 665, "unit": "glycopeptides"},
      {"measurement": "number of glycopeptides with differential (enhanced) abundance after epalrestat", "setting": "[3]; paired epalrestat vs vehicle", "result": 412, "unit": "glycopeptides"},
      {"measurement": "ICAM-1 Asn267 glycopeptide (Hex7HexNAc6NeuAc2Fuc5) increase in abundance", "setting": "[3]; paired epalrestat vs. vehicle analysis", "result": 10, "unit": "%"},
      {"measurement": "liver elastography Interquartile Range to Median ratio", "setting": "[4]; after 1 month of therapy, prior to therapy 14%", "result": 12, "unit": "%"},
      {"measurement": "liver elastography Interquartile Range to Median ratio", "setting": "[4]; at 6 months", "result": 20, "unit": "%"},
      {"measurement": "liver elastography Interquartile Range to Median ratio", "setting": "[4]; at 12 months", "result": 8, "unit": "%"},
      {"measurement": "liver elastography", "setting": "[4]; patient P1", "result": "remained normal"},
      {"measurement": "adverse events", "setting": "[4]; patient P1, 0.27 mg/kg three times a day, 12 months", "result": "No adverse events"},
      {"measurement": "CBC with differential, transaminases, bilirubin, and albumin", "setting": "[4]; [5]", "result": "remained normal"},
      {"measurement": "antithrombin III levels and International normalized ratio (INR)", "setting": "[4]; [5]", "result": "remained at normal levels"},
      {"measurement": "vital signs", "setting": "[4]; [5]", "result": "remained normal"}
    ]}
  ]
}
